In patent US20060252683A1, “Preparation of a peptide compound (SYRAPRO-2000) and its use for the activation of protein phosphatase-2A1 enzyme” (priority 2005, published 2006):

Tests used:
protein phosphatase-2B = assay: Protein phosphatase-2B assay; assay type: biochemical, pig; conditions: various concentrations
Procedure: (§1) Protein phosphatase-1 (squares), protein phosphatase-2A1 (circles), protein phosphatase-2B (triangles) and protein phosphatase-2C (stars) were assayed in the presence of various concentrations of HIV-1 Vpr^71-96. 100 percent protein phosphatase activity is equivalent to 0.005 unit. Similar results were obtained in 3 independent experiments.
(§2) ^32P-labeled phosphorylase a was prepared by phosphorylation of phosphorylase b with phosphorylase kinase as described in (Cohen 1988). ^32P-labeled casein was prepared by phosphorylation of casein with protein kinase A as described in (Tung 1986). Protein phosphatase-1 was purified from rabbit skeletal muscle as described in (Cohen 1988). Protein phosphatase-1 inhibitor-2 was purified from rabbit skeletal muscle as described in (Yang 1981). Protein phosphatase-2A0 and protein phosphatase-2A1 from pig brain and from pig liver were purified as described in (Tung 1985). Protein phosphatase-2A0 and protein phosphatase-2A1 from pig adipose tissue were highly purified by successive chromatography of pig subcutaneous adipose tissue extracts on DEAE Sepharose, Poly-L-lysine Agarose, Sephacryl S-300 HR and thiophosphorylase-a-Sepharose-4B as described in (Tung 1985). Protein phosphatase-2B was purified from pig brain as described in (Tung 1986). […]

protein phosphatase-1 = target: T1, protein phosphatase-1 (Oryctolagus cuniculus, UniProt P62139); assay: Protein phosphatase-1 assay; assay type: biochemical, rabbit; conditions: various concentrations
T1 construct: Protein phosphatase-1 was purified from rabbit skeletal muscle; from tissue; host or cells: rabbit skeletal muscle
T1 sequence (P62139 whole entry): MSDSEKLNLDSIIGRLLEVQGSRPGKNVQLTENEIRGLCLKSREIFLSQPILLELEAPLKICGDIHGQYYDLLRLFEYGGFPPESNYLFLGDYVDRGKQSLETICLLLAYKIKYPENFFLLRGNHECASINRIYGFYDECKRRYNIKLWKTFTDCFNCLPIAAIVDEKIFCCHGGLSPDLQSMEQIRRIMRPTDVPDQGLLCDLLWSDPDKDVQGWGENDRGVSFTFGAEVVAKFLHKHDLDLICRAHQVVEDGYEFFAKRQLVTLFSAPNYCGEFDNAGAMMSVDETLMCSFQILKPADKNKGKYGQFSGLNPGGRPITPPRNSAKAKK
Procedure: as §1, §2

[1] = Cell viability (tryphan blue) and cell death of HTB-3 cells; assay type: cell-based, human; conditions: human, HTB-3 cells (glioblastoma cell line), 2000 nM, 8 days of incubation, read-out: treated cells non viable (tryphan blue staining)
Procedure: (§3) Panel A, HTB-3 cells (a human glioblastoma cell line) were grown in DMEM and 5% (v/v) fetal bovine serum. Cells (10^6 cells per ml) were treated (+) or not (−) with 2000 nM SYRAPRO-2000. Cell viability was then determined by counting the cells following tryphan blue staining after 4, 8 and 12 days of incubation. Panel B, Following treatment with or without SYRAPRO-2000 for 8 days, HTB-3 cells grown on slides were analyzed by phase contrast microscopy (Row A), by fluorescence microscopy following staining with FITC labeled annexin V (apoptotic cell death) (Row B) or propidium iodide (oncolytic cell death) on a Cells were analyzed on a Zeiss Axioplan 2 imaging universal microscope (Thornwood, N.Y.). Phase contrast images and Green (FITC labeled annexin V) and red (propidium iodide) fluorescence images were obtained. […]
(§4) HTB-3 cells are grown in DMEM supplemented with 5% (v/v) fetal bovine serum and antibiotics and treated or not with 2 μM SYRAPRO-2000 for 8 days. Following treatment with SYRAPRO-2000, cell viability are then determined by counting the cells following tryphan blue staining. […] Following treatment with SYRAPRO-2000, cells grown on slides by were analyzed by phase contrast microscopy and fluorescence microscopy following staining with FITC labeled annexin V (an indicator of apoptotic cell death) or propidium iodide (an indicator of oncolytic or necrotic cell death). […]

HTB-3 cells = assay: as above; assay type: cell-based, human; conditions: 2000 nM, 8 days
Procedure: as §3, §4

CC[C@H](C)[C@H](NC(=O)[C@H](CCCNC(=N)N)NC(=O)[C@H](CO)NC(=O)[C@H](Cc1c[nH]cn1)NC(=O)[C@H](CCCNC(=N)N)NC(=O)[C@H](CS)NC(=O)CNC(=O)[C@@H](NC(=O)[C@H](CCCNC(=N)N)NC(=O)[C@H](Cc1ccccc1)NC(=O)[C@@H](N)Cc1c[nH]cn1)[C@@H](C)CC)C(=O)NCC(=O)N[C@H](C(=O)N[C@H](C(=O)N[C@@H](CCCNC(=N)N)C(=O)N[C@@H](CCC(N)=O)C(=O)N[C@@H](CCCNC(=N)N)C(=O)N[C@@H](CCCNC(=N)N)C(=O)N[C@@H](C)C(=O)N[C@@H](CCCNC(=N)N)C(=O)N[C@@H](CC(N)=O)C(=O)NCC(=O)N[C@@H](C)C(=O)N[C@@H](CO)C(=O)N[C@@H](CCCNC(=N)N)C(=O)N[C@@H](CO)C(=O)O)[C@@H](C)O)C(C)C [SYRAPRO-2000]
effect on activity of protein phosphatase-2B (protein phosphatase-2B): negligible effect
effect on activity of protein phosphatase-1 (protein phosphatase-1): negligible effect
cytotoxicity at 8 days, 2 µM [1]: ~50%
mode of cell death (FITC-annexin V and propidium iodide staining) (HTB-3 cells): apoptosis and oncolysis
